From the supplement of paper PMC10307832

Key:
Assay in all cases: relative viability (nuclei count vs DMSO), 5 days (fraction); higher = more cells survive
[1] = compound: CCC1=CN=CN=C1N2CCN(CC2)CC3=NC4=C(N3)C=C(C=C4)C(F)(F)F + Cc1nc(Nc2ncc(C(=O)Nc3c(C)cccc3Cl)s2)cc(N2CCN(CCO)CC2)n1 [Dasatinib] (partner 0.075 µM)
Summary of the method: (§1)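 After 5 days of treatment, lung cancer cells in 1536-well plates were fixed and stained in a single step (final 0.05% Triton X-100, 1% formaldehyde, 1 ug/ml Hoechst) and their nuclei counted on 4× images. Treatment had been applied by pin tool the day after seeding as one drug alone or as a fixed anchor-drug dose with five library-drug doses (not always all listed) in √10 steps. Relative viability is the nuclei count of treated wells divided by that of vehicle wells, and values are medians of duplicate plates.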

[2] = compound: CCn1c(-c2nonc2N)nc2cnc(Oc3cccc(NC(=O)c4ccc(OCCN5CCOCC5)cc4)c3)cc21 + CC(=O)c1c(C)c2cnc(Nc3ccc(N4CCNCC4)cn3)nc2n(C2CCCC2)c1=O [Palbociclib] (partner 0.5 µM)
Summary of the method: as §1

[3] = compound: CCn1c(-c2nonc2N)nc2cnc(Oc3cccc(NC(=O)c4ccc(OCCN5CCOCC5)cc4)c3)cc21 + Nc1nc2[nH]cc(CCc3ccc(C(=O)N[C@@H](CCC(=O)O)C(=O)O)cc3)c2c(=O)[nH]1 [Pemetrexed] (partner 0.2 µM)
Summary of the method: as §1

[4] = compound: CCn1c(-c2nonc2N)nc2cnc(Oc3cccc(NC(=O)c4ccc(OCCN5CCOCC5)cc4)c3)cc21 + CC1(C)CCC(c2ccc(Cl)cc2)=C(CN2CCN(c3ccc(C(=O)NS(=O)(=O)c4ccc(N[C@H](CCN5CCOCC5)CSc5ccccc5)c(S(=O)(=O)C(F)(F)F)c4)cc3)CC2)C1 [Navitoclax] (partner 0.5 µM)
Summary of the method: as §1

Row | Cell Line | relative viability ([1]; first compound 0.04 µM) | relative viability ([1]; first compound 0.1265 µM) | relative viability ([1]; first compound 0.4 µM) | relative viability ([1]; first compound 1.265 µM) | relative viability ([1]; first compound 4 µM) | relative viability ([2]; first compound 0.04 µM) | relative viability ([2]; first compound 0.1265 µM) | relative viability ([2]; first compound 0.4 µM) | relative viability ([2]; first compound 1.265 µM) | relative viability ([2]; first compound 4 µM) | relative viability ([3]; first compound 0.04 µM) | relative viability ([3]; first compound 0.1265 µM) | relative viability ([3]; first compound 0.4 µM) | relative viability ([3]; first compound 1.265 µM) | relative viability ([3]; first compound 4 µM) | relative viability ([4]; first compound 0.04 µM) | relative viability ([4]; first compound 0.1265 µM) | relative viability ([4]; first compound 0.4 µM) | relative viability ([4]; first compound 1.265 µM) | relative viability ([4]; first compound 4 µM)
1 | NCI-H358 | 0.234 | 0.147 | 0.179 | 0.14 | 0.172 | 0.162 | 0.167 | 0.134 | 0.145 | 0.135 | 0.176 | 0.169 | 0.19 | 0.178 | 0.151 | – | – | – | – | –
2 | NCI-H522 | 0.849 | 0.819 | 0.88 | 0.866 | 0.923 | 1.18 | 1.13 | 0.853 | 0.909 | 0.827 | 1.06 | 0.763 | 0.917 | 0.703 | 0.595 | – | – | – | – | –
3 | NCI-H596 | 0.679 | 0.608 | 0.555 | – | 0.668 | – | – | – | – | – | 0.438 | 0.484 | 0.462 | 0.451 | 0.48 | 1.06 | 0.962 | 1.01 | 1.01 | 1.01
4 | NCI-H650 | 0.4 | 0.413 | 0.456 | 0.441 | 0.494 | 0.349 | 0.297 | 0.255 | 0.201 | 0.184 | 1.05 | 0.799 | 0.454 | 0.425 | 0.458 | – | – | – | – | –
5 | NCI-H661 | 0.951 | 0.872 | 0.827 | 0.772 | 0.909 | 0.363 | 0.395 | 0.366 | 0.365 | 0.303 | 0.922 | 0.994 | 0.893 | 0.74 | 0.513 | – | – | – | – | –
6 | NCI-H727 | 0.407 | 0.38 | 0.364 | – | 0.314 | – | 0.63 | 0.599 | 0.657 | 0.622 | – | – | – | – | – | 0.476 | 0.564 | 0.46 | 0.441 | 0.382
7 | NCI-H1299 | – | – | – | – | – | – | – | – | – | – | – | – | – | – | – | 1.02 | 1.01 | 0.887 | 0.885 | 0.803
8 | NCI-H1563 | 0.472 | 0.476 | 0.489 | 0.435 | 0.513 | – | – | – | – | – | 0.82 | 0.769 | 0.694 | 0.595 | 0.734 | – | – | – | – | –
9 | NCI-H1623 | 0.455 | 0.501 | 0.548 | 0.564 | 0.562 | – | – | – | – | – | – | – | – | – | – | – | – | – | – | –
10 | NCI-H1648 | – | – | – | – | – | 0.277 | 0.245 | 0.231 | 0.474 | 0.388 | 1.01 | 1.13 | 0.828 | 0.964 | 0.78 | – | – | – | – | –
11 | NCI-H1703 | – | – | – | – | – | – | – | – | – | – | – | – | – | – | – | 1.03 | 0.886 | 0.474 | 0.296 | 0.233
12 | NCI-H2342 | 0.317 | 0.316 | 0.327 | 0.32 | 0.338 | 0.467 | 0.52 | 0.554 | 0.52 | 0.553 | 0.75 | 0.782 | 0.736 | 0.474 | 0.76 | – | – | – | – | –
13 | SW 900 | 0.601 | 0.544 | 0.571 | 0.603 | 0.448 | 0.54 | 0.517 | 0.572 | 0.521 | 0.574 | 0.526 | 0.49 | 0.439 | 0.442 | 0.444 | – | – | – | – | –
